These results are taken from patent US7138376B2, “Methods and compositions for treating hepatitis C virus using 4'-modified nucleosides” (Idenix Pharmaceuticals, Inc., priority 2001, dated 2006).

One series deals with MDBK. The series can be described thus: Cytotoxicity assay (CC50, sulforhodamine B staining). The series is classed as cell-based. Conditions: MDBK cells; 4 days incubation; concentration reducing cell number by 50%; preliminary results. On the procedure:
The test compounds were dissolved in DMSO at an initial concentration of 200 μM and then were serially diluted in culture medium.
Cells are seeded at a rate of between 5×10^3 and 5×10^4/well into 96-well plates in growth medium overnight at 37° C. in a humidified CO2 (5%) atmosphere. New growth medium containing serial dilutions of the drugs is then added. After incubation for 4 days, cultures are fixed in 50% TCA and stained with sulforhodamineB. The optical density was read at 550 nm. The cytotoxic concentration was expressed as the concentration required to reduce the cell number by 50% (CC50).

The subject of the next series is HCV. Conditions: cited from earlier work.
The next series has as its system HCV protease. The conditions noted are these: SDS-PAGE and autoradiography assay; cited from earlier work.

As usually defined, the CC50 is the concentration giving 50% cytotoxicity. Low values mean harm at low concentration, high ones better tolerance by the cells. Turning to `C[C@]1(CO)O[C@@H](n2cnc3c(=O)[nH]c(N)nc32)[C@H](O)[C@@H]1O` [β-D-4′-CH3-riboG, 9-(4-C-methyl-β-D-ribofuranosyl) guanine], in the series with MDBK, the CC50 was more than 250 µM.

What is called melting point is the temperature, or range, at which the solid turns liquid. In the case of `C[C@]1(CO)O[C@@H](n2cnc3c(N)ncnc32)[C@H](O)[C@@H]1O` [β-D-4′-CH3-riboA, 9-(4-C-methyl-β-D-ribofuranosyl) adenine], the melting point is 96 to 97 °C (dec.). The CC50 in the series with MDBK was more than 250 µM.

With `Cc1cn([C@@H]2O[C@](C)(CO)[C@@H](O)[C@H]2O)c(=O)[nH]c1=O` [β-D-4′-CH3-riboT, 1-(4-C-methyl-β-D-ribofuranosyl)thymine], the melting point was 258 to 260 °C (dec.). In the series on MDBK, this molecule came in with a CC50 of more than 250 µM.

In the case of `NC(=O)c1ncn([C@@H]2O[C@H](CO)[C@@H](O)[C@H]2O)n1` [Ribavirin, 1-β-D-ribofuranosyl-1-1,2,4-triazole-3-carboxamide], the “effect on serum levels of HCV-RNA” value in the series with HCV (patients, sole treatment) is given as “does not lower serum levels of HCV-RNA”. Besides, the “patients in whom serum amino transferase levels are reduced to normal” value in the series with HCV (ribavirin alone) was 40%.

Consider `C[C@]1(CO)O[C@@H](n2cc(F)c(=O)[nH]c2=O)[C@H](O)[C@@H]1O` [β-D-4′-CH3-ribo-5-fluoroU], for which, in the series with MDBK, the CC50 was more than 167 µM.

On to `C[C@]1(CO)O[C@@H](n2ccc(=S)[nH]c2=O)[C@H](O)[C@@H]1O` [β-D-4′-CH3-ribo-4-thioU, 1-(4-C-methyl-β-D-ribofuranosyl)4-thio-uracil], for which the melting point is 65 to 70 °C (dec.). Also, the CC50 in the series with MDBK is more than 250 µM.

Consider `CCCC(=O)c1cc2c(c(O)c1C)C(=O)C(=O)c1c(O)cccc1-2` [Sch 68631], for which the “activity against HCV protease” value in the series with HCV protease was “micromolar activity”.

In the case of `C[C@]1(CO)O[C@@H](n2ccc(N)nc2=O)[C@H](O)[C@@H]1O` [β-D-4′-CH3-riboC, 1-(4-C-methyl-β-D-ribofuranosyl)cytosine], the CC50 in the series with MDBK is more than 250 µM.
